In PMC4454681, “Design and Evaluation of Antimalarial Peptides Derived from Prediction of Short Linear Motifs in Proteins Related to Erythrocyte Invasion” (PLoS ONE, 2015):
Entries after “also recorded” stand apart in the source; their conditions may differ. Where a SMILES comes first, the peptide text is derived from it. The star is where a group is joined. Palmitoyl = CCCCCCCCCCCCCCCC(=O)*

Columns and labels:
[1] = system: 3D7 line of P. falciparum; test: Peptide inhibition of parasite growth (pLDH method); assay type: cell-based, Plasmodium falciparum; details: for Growth inhibition: 100 μM peptide, 48 hour and 72 hour time points, asynchronous cultures, 2% haematocrit, 0.8% initial parasitaemia, max 0.5% DMSO, pLDH activity; for Growth inhibition / Growth inhibition (dose-response curves) / Concentration-response relationship of growth inhibition: means of three experiments in duplicate; for Growth inhibition (dose-response curves) / Concentration-response relationship of growth inhibition: 48 and 72 hours; for Concentration-response relationship of growth inhibition: ten concentrations between 10 μM and 100 μM
Experimental: P. falciparum line 3D7, adapted to grow in Albumax® (BioSciences, Dun Laoghaire, Ireland), was cultured in human erythrocytes (Irish Blood Transfusion Board, Ireland) in standard growth medium, in candle jars. Fresh erythrocytes were obtained every three weeks and washed according to lab protocols. Staining of blood smears was with Giemsa stain. The number of infected erythrocytes was counted by microscopy and the parasitaemia was calculated.
The antimalarial activity of test peptides (ChinaPeptides Co. Ltd, Shanghai, China) was determined in culture on the 3D7 line of P. falciparum using the parasite lactate dehydrogenase (pLDH) method in 96-well microtitre plates with modifications as previously described. Each test peptide was initially evaluated at three different concentrations, 100 μM, 10 μM and 1 μM, to determine activity range. The effect of the compounds was evaluated at 48 and 72 hours on growth of asynchronous cultures (cultured as described in the previous section) of P. falciparum, determined by the assay of pLDH activity. We used unsynchronised cultures in order (i) to make no prior assumptions about the stage of growth that might be inhibited and (ii) to avoid possible inhibitory effects of the synchronising protocol, e.g. sorbitol treatment, separation techniques, etc. The appropriate dilutions of the compounds were prepared in DMSO and added to the cultures of P. falciparum (2% haematocrit, 0.8% initial parasitaemia and a maximum of 0.5% DMSO). The same methodology was then used to assess the dose-response curves of peptides 5, 7, 10, 11, 12, 13 using ten concentrations between 10 μM and 100 μM.

[2] = reason for exclusion from further investigation
[3] = system: P. falciparum late stages (trophozoite/schizont) introduced to fresh erythrocytes; test: Schizont to ring development assay; assay type: cell-based, Plasmodium falciparum; details: 100 μM peptide, 2 hours with magnetically purified schizonts, washed, fresh erythrocytes 14–16 hours; rings counted in Giemsa smears; two experiments in triplicate
From the text: Routine erythrocytic P. falciparum cultures are an asynchronous culture consisting of rings, trophozoites, schizonts and merozoites. To enrich for the late stages of erythrocytic development, parasites at high parasitaemia (>15%) were subjected to magnetic selection. Parasitised erythrocytes were passed over a CS column (Miltenyi Biotec, Surrey, UK) which was mounted on a VarioMacs magnet (Miltenyi Biotec, Surrey, UK). The column was then washed with incomplete medium (RPMI 1640 supplemented with 25 mM HEPES, hypoxanthine [50 μg/ml], 0.16% w/v glucose) to remove unparasitised erythrocytes and was then removed from the magnet, a further wash with incomplete medium eluting late-stage parasitised erythrocytes.
Parasites synchronised to late stages (trophozoite/schizont) by magnetic selection were incubated with either the peptide being tested (100 μM concentration) or vehicle only control (DMSO) in complete medium for two hours. Treated schizonts were washed with complete medium and centrifugation at 350 xg for 10 minutes. Washing was repeated twice. Treated schizonts were then introduced to fresh erythrocytes at 2.5% hematocrit and incubated overnight (14–16 hours) with shaking. Parasitaemia was assessed by counting the number of ring stages in parasitised erythrocytes in Giemsa stained blood smears by light microscopy. This crude assay measures not just invasion but merozoite release and early ring-stage development.

[4] = system: erythrocytes from healthy human volunteers; details: 100 μM peptide; approx. 1.5 × 10^8 erythrocytes, 15 minutes at 37°C, buffer A pH 7.4; absorbance 405 nm; compared with 0.1% (v/v) Triton X-100 = 100%; duplicate, three donors
Experimental: The hemolytic activity of the peptides was investigated using erythrocytes from healthy human volunteers. Blood was collected in the presence of 15% anticoagulant acid citrate glucose (ACD) (38 mM citric acid, 75 mM sodium citrate, 124 mM glucose) and was centrifuged at 150 xg for 10 minutes at room temperature. Plasma was removed and erythrocytes were washed twice with buffer A (pH 7.4) (130 mM sodium chloride, 10 mM sodium citrate, 9 mM sodium biocarbonate, 6 mM glucose, 0.9 mM magnesium chloride, 0.81 mM potassium hydrogen phosphate, 10 mM Tris), by cenrifugation at 1,000 xg for 5 minutes and resuspended in the same buffer. For the hemolysis assay approximately 1.5 × 10^8 erythrocytes were incubated with solutions of peptides 5, 10 or 12-Cam at 100 μM and 10 μM concentrations for 15 minutes at 37°C. After incubation, samples were centrifuged at 1,000 xg for 5 minutes and the supernatant was analysed for the presence of hemoglobin at an absorbance of 405 nm. Complete hemolysis was achieved using 0.1% (v/v) Triton X-100 yielding the 100% control value. The assay was run in duplicate with three different donors.

CCCCCCCCCCCCCCCC(=O)O [Palmitate, reference compound]
Growth inhibition [1]: no inhibitory effect

pal-KEEIIEIVFDENEEKYF [Peptide 7]
Growth inhibition (dose-response curves) ([1]; 10 μM): no inhibition
Growth inhibition [1]: some growth inhibition; also recorded: moderate activity

pal-KHRKGNNA-NH2 [Peptide 13, palmitoylated, amidated peptide from complement receptor type 1]
Growth inhibition (dose-response curves) ([1]; 10 μM): no inhibition
Growth inhibition [1]: some growth inhibition; also recorded: moderate activity

pal-KRKLKEEQRTKKIKID [Peptide 4, palmitoylated peptide from putative calcium-transporting ATPase Q76NN8]
Antimalarial activity (overall, growth inhibition assay) ([1]; tested at 100 μM, 10 μM and 1 μM): inactive

pal-KKKLYLYFE-NH2 [Peptide 3]
Growth inhibition [1]: some growth inhibition
Solubility [2]: insolubility

CCCCCCCCCCCCCCCC(=O)N[C@@H](CO)C(=O)N[C@@H](CO)C(=O)N[C@@H](CO)C(=O)N[C@@H](CCCNC(=N)N)C(=O)N[C@@H](CCCCN)C(=O)N[C@@H](CC(N)=O)C(=O)N[C@@H](CCCNC(=N)N)C(=O)N[C@@H](Cc1ccccc1)C(=O)N[C@@H](CCCNC(=N)N)C(=O)N[C@@H](Cc1ccc(O)cc1)C(=O)N[C@@H](CC(C)C)C(=O)N1CCC[C@H]1C(=O)N[C@@H](Cc1ccccc1)C(N)=O [Peptide 5] (Palmitoyl-SSSRKNRFRYLPF-NH2)
Growth inhibition [1]: clearly observed
Concentration-response relationship of growth inhibition [1]: clear increases in growth inhibition with increasing concentration
Ability of merozoites to establish new infections in fresh erythrocytes (ring parasitaemia, % of control) [3]: almost totally reduced

pal-AALQEPALQDAGESSRKEYFI [glycophorin-C peptide, palmitoylated peptide from glycophorin-C, preliminary testing only]
Activity in preliminary testing ([1]; preliminary testing, no further tests conducted): no activity

pal-SYSIRRLIKA [Peptide 11, palmitoylated peptide from glycophorin-B]
Growth inhibition [1]: some growth inhibition
Concentration-response relationship of growth inhibition [1]: no such clear effect

CCCCCCCCCCCCCCCC(=O)N[C@@H](CCCNC(=N)N)C(=O)N[C@@H](CCCNC(=N)N)C(=O)N[C@@H](CC(C)C)C(=O)N[C@H](C(=O)N[C@@H](CCCCN)C(=O)N[C@@H](CCCCN)C(=O)N[C@@H](CO)C(=O)N1CCC[C@H]1C(N)=O)[C@@H](C)CC [Peptide 10] (Palmitoyl-RRLIKKSP-NH2)
Growth inhibition [1]: clearly observed
Concentration-response relationship of growth inhibition [1]: clear increases in growth inhibition with increasing concentration
Ability of merozoites to establish new infections in fresh erythrocytes (ring parasitaemia, % of control) [3]: not as significant as that of the other two peptides
Release of haemoglobin from erythrocytes [4]: approximately 50%

pal-SYTIRRLIKA [Peptide 12, palmitoylated peptide from glycophorin-B, common human polymorphism of peptide 11]
Growth inhibition [1]: clearly observed
Concentration-response relationship of growth inhibition [1]: clear increases in growth inhibition with increasing concentration
Ability of merozoites to establish new infections in fresh erythrocytes (ring parasitaemia, % of control) [3]: almost totally reduced

CCCCCCCCCCCCCCCC(=O)N[C@@H](CO)C(=O)N[C@@H](Cc1ccc(O)cc1)C(=O)N[C@H](C(=O)N[C@H](C(=O)N[C@@H](CCCNC(=N)N)C(=O)N[C@@H](CCCNC(=N)N)C(=O)N[C@@H](CC(C)C)C(=O)N[C@H](C(=O)N[C@@H](CCCCN)C(=O)N[C@@H](C)C(N)=O)[C@@H](C)CC)[C@@H](C)CC)[C@@H](C)O [Peptide 12-Cam] (Palmitoyl-SYTIRRLIKA-NH2)
Growth inhibition of amidated peptide 12 versus its scrambled versions ([1]; 10 μM, 48 and 72 hours (Fig 4), three experiments in duplicate): more active than four scrambled controls
